Source: US5627035A, “Peptides that block human immunodeficiency virus and methods of use thereof” (Syntello Vaccine Development AB, priority 1995, dated 1997)
Where a SMILES comes first, the peptide text is derived from it.

Legend:
[1] = Humoral anti-TNP antibody response in mice pretreated with Gly-Pro-Gly, ELISA endpoint titer; type: in vivo; conditions: 5 mg/day/animal for 5 days
Description: The effects of Gly-Pro-Gly on development of humoral specific antibody responses was examined in mice. For this purpose, Gly-Pro-Gly was administered in adult (4 weeks old, sex matched) Swiss albino outbred mice by intraperitoneal injections given daily for 5 consecutive days. The control group was not given Gly-Pro-Gly, whereas the second and third groups were given 0.5 mg and 5 mg Gly-Pro-Gly respectively. […]
Serum antibody responses to the TNP group were monitored by the ELISA technique performed on serum samples collected 2 weeks after the second injection. […]
ELISA assays were performed as follows. […] TNP-reactive antibodies were then detected by stepwise addition of enzyme labelled goat antibodies to mouse IgG1, IgG2a, IgG2b, IgG3 or IgM (all obtained from Southern Biotechnology Associates, Birmingham, Ala.) and enzyme substrate. Results are expressed as endpoint titer, the latter being defined as the reciprocal of the highest dilution of serum giving an ELISA absorbance value equal to 3 times that of control wells exposed to buffer alone but not serum.

[2] = In vivo toxicity: growth of mice given intraperitoneal Gly-Pro-Gly; parameters: Mean weight of mice: unit not given here
Text: In an in vivo test of the toxicity of Gly-Pro-Gly, groups of mice were given intraperitoneal injections of the substance starting at an age of 6 days. FIG. 3 also graphically depicts the results. […] The peptides are thus nontoxic even when given in large doses.

normal T cells = experiment: In vitro proliferative response of normal T cells to mitogens, stimulation index; type: cell-based, human
Description: The in vitro proliferative response of normal T cells was examined after concurrent exposure of unfractionated, and T cell enriched (CD4^+ or CD8^+ enriched using DYNABEADS M-450 CD4 and DYNABEADS M-450 CD, magnetic beads according to the manufacturer's instructions, DYNAL A. S. Oslo Norway).
The results are indicated as the stimulation index which is calculated as follows: the ratio between radioactive Thymidine incorporated in cell cultures exposed to mitogen alone or mitogen plus Gly-Pro-Gly divided by the radioactive Thymidine incorporated in identical cell cultures exposed to medium alone.

HTLV-111B/H9 New York = experiment: Infectivity assay HTLV-IIIB/H9 New York: p24 ELISA (absorbance 454 nm of diluted supernatant), syncytia, immunofluorescence; type: cell-based, HIV-1; conditions: for # OF SYNCYTIA/WELL Day 14 / PERCENTAGE OF AG POS CELLS / p24 1/10 / p24 1/100 / p24 1/1,000: Table 6; for HIV infection by p24 synthesis and syncytia formation, in words: Tables 3-6
Description: Virus at 100 50% tissue culture infectious doses (TCID50) and peptides at concentrations of 250 and 25 μg/ml were added to the cells simultaneously and incubated for 2 hours at 4° C. with frequent stirring. Subsequently, the temperature was increased to 37° C. and the mixtures were subjected to a second incubation for 2 hours. Following the second incubation, the cells were centrifuged at 325 x g and washed once in RPMI medium (Gibco Laboratories, N.Y.). Cells, at a concentration of 5×10^5 /ml, were then added to 24 multidish well plates at a final volume of 1.5 ml of growth medium (RPMI supplemented with 10% fetal calf serum (FCS), antibiotics and polybrene (2 μg/ml)), with the addition of peptides at dilutions of 250 or 25 μg/ml. […] As additional controls, two HIV infected cell cultures (designated pos. controls 1 and 2, Tables 3-5) and two uninfected cell cultures (designated neg. controls 1 and 2) were used.
Infected cells were continuously monitored for formation of syncytia and the growth medium supernatants were analyzed at days 9-12 p.i. for p24 antigen which is an indicator of HIV replication.
Briefly, the following protocol was used for detection of the p24 antigen. HIV p24 antigen was determined using a rabbit anti-p24 polyclonal antiserum as capture antibody and a biotinylated rabbit anti-p24 polyclonal antibody was used as detecting antibody in an avidin-horse radish peroxidase (HRP) ELISA. The sensitivity of the assay allowed detection of approximately 50 pg of p24 antigen per ml supernatant. […] Serial dilutions of the supernatants were made so as to detect p24 concentration in the most accurate range (<2.0 absorbance units).
The number of infected cells were then determined by indirect immunofluorescence using a human HIV positive serum diluted 1/100 and FITC conjugated antihuman IgG (Bio Merieux, France) diluted 1/200.
In tables 3-6, the p24 content of the supernatants of infected cells was determined by diluting the supernatants of infected cells in serial tenfold dilutions (1/10, 1/100, 1/1000 and 1/10,000) and analyzing in ELISA as described above. Results are indicated by the absorbance values (454nm) of respective dilutions.
In tables 8 and 9, the p24 content of the supernatants of infected cells was determined by diluting the supernatants in serial tenfold dilutions (1/10, 1/100, 1/1,000) and analyzing by ELISA as described in Example 2. Results are indicated by the absorbance values (454 nm) of respective dilutions.

[3] = tested on: herpes simplex virus type I (HSV-1) strain McIntyre; experiment: Yield inhibition assay of HSV-1 in GMK cells; type: cell-based; conditions: plaque reduction and virus yields
Description: The yield inhibition assay was performed as follows: HSV-1 was inoculated at a multiplicity of 0.5 pfu per GMK cell in the presence of the respective peptide at concentrations of 250 and 25 μg/ml. Virus adsorption was performed for 60 min. at room temperature. The cells were then rinsed five times with Hanks' Balanced Salt Solution (BSS) and incubated in a 5% CO2 atmosphere at 37° C. with maintenance medium containing either peptides or acyclovir, according to the methods described in "Proceedings of a Symposium on Acyclovir", The American Journal of Medicine, Jul. 20, (1982) which is incorporated herein by reference, or without any additives. Twenty-four hours p.i. the cells were freeze-thawed, scraped into the medium and tested for virus yield by the infectivity assay as outlined in Example 2. The results are shown in Table 7 where the plaque reduction values are the mean of two cultures and the yield of HSV-1 after 24 hours is the mean of two determinations and the values are presented in millions of pfu/ml.

## NCC(=O)N1CCC[C@H]1C(=O)NCC(N)=O [Gly-Pro-Gly] (H-Gly-Pro-Gly-NH2)
[1]
  humoral immune responsiveness of mice: do not appreciably influence
[2]; Feb. 25, 0.001 g GPG i.p.
  Mean weight of mice: 5.66
[2]; Feb. 25, 0.1 g GPG i.p.
  Mean weight of mice: 4.98
[2]; Feb. 25, 1 g GPG i.p.
  Mean weight of mice: 5.62
[2]; Feb. 26, 0.001 g GPG i.p.
  Mean weight of mice: 6.24
[2]; Feb. 26, 0.1 g GPG i.p.
  Mean weight of mice: 5.54
[2]; Feb. 26, 1 g GPG i.p.
  Mean weight of mice: 6.27
[2]; Feb. 27, 0.001 g GPG i.p.
  Mean weight of mice: 6.76
[2]; Feb. 27, 0.1 g GPG i.p.
  Mean weight of mice: 6.41
[2]; Feb. 27, 1 g GPG i.p.
  Mean weight of mice: 7.04
[2]; Feb. 28, 0.001 g GPG i.p.
  Mean weight of mice: 7.40
[2]; Feb. 28, 0.1 g GPG i.p.
  Mean weight of mice: 7.11
[2]; Feb. 28, 1 g GPG i.p.
  Mean weight of mice: 7.80
[2]; March 1, 0.001 g GPG i.p.
  Mean weight of mice: 7.83
[2]; March 1, 0.1 g GPG i.p.
  Mean weight of mice: 8.00
[2]; March 1, 1 g GPG i.p.
  Mean weight of mice: 8.61
[2]; March 4, 0.001 g GPG i.p.
  Mean weight of mice: 9.22
[2]; March 4, 0.1 g GPG i.p.
  Mean weight of mice: 9.35
[2]; March 4, 1 g GPG i.p.
  Mean weight of mice: 10.53
[2]; March 5, 0.001 g GPG i.p.
  Mean weight of mice: 9.63
[2]; March 5, 0.1 g GPG i.p.
  Mean weight of mice: 10.04
[2]; March 5, 1 g GPG i.p.
  Mean weight of mice: 11.22
[2]; March 6, 0.001 g GPG i.p.
  Mean weight of mice: 9.88
[2]; March 6, 0.1 g GPG i.p.
  Mean weight of mice: 10.35
[2]; March 6, 1 g GPG i.p.
  Mean weight of mice: 11.44
[2]; March 7, 0.001 g GPG i.p.
  Mean weight of mice: 9.95
[2]; March 7, 0.1 g GPG i.p.
  Mean weight of mice: 11.17
[2]; March 7, 1 g GPG i.p.
  Mean weight of mice: 12.12
[2]; March 8, 0.001 g GPG i.p.
  Mean weight of mice: 10.30
[2]; March 8, 0.1 g GPG i.p.
  Mean weight of mice: 11.38
[2]; March 8, 1 g GPG i.p.
  Mean weight of mice: 12.69
[2]; March 15, 0.001 g GPG i.p., no injections 3/8-3/15
  Mean weight of mice: 16.59
[2]; March 15, 0.1 g GPG i.p., no injections 3/8-3/15
  Mean weight of mice: 17.46
[2]; March 15, 1 g GPG i.p., no injections 3/8-3/15
  Mean weight of mice: 19.85
[2]; compared with controls
  influence on the growth of mice: no significant influence
Normal T cells; doses as high as 20 μM
  direct anti-proliferative properties on T cells: marginal if any
Normal T cells; in vitro human, in vivo murine
  effect on normal T cell and B cell functions: no effect

## Gly-Pro-Gly-Gly (GPGG; printed: Gly-Pro-Gly-Gly)
HTLV-111B/H9 New York; 25 μg/ml
  # OF SYNCYTIA/WELL Day 14: 15
  PERCENTAGE OF AG POS CELLS: 25-30%
  p24 1/10: 0.933
  p24 1/100: 0.11
  p24 1/1,000: 0.016
HTLV-111B/H9 New York; 250 μg/ml
  # OF SYNCYTIA/WELL Day 14: 20
  PERCENTAGE OF AG POS CELLS: 30%
  p24 1/10: 0.523
  p24 1/100: 0.052
  p24 1/1,000: 0.007
HTLV-111B/H9 New York
  HIV infection by p24 synthesis and syncytia formation, in words: no inhibitory effect on HIV replication

## Nc1nc2c(ncn2COCCO)c(=O)[nH]1 [Acyclovir, acyclovir]
[3]
  capacity of HSV-1 to replicate in GMK cells, in words: significantly reduced

## Gly-Pro-Ala
HTLV-111B/H9 New York; 25 μg/ml
  # OF SYNCYTIA/WELL Day 14: 85
  PERCENTAGE OF AG POS CELLS: 30-40%
  p24 1/10: > 2.0
  p24 1/100: 0.616
  p24 1/1,000: 0.154
HTLV-111B/H9 New York; 250 μg/ml
  # OF SYNCYTIA/WELL Day 14: 20
  PERCENTAGE OF AG POS CELLS: 20-30%
  p24 1/10: > 2.0
  p24 1/100: 0.299
  p24 1/1,000: 0.059
HTLV-111B/H9 New York
  HIV infection by p24 synthesis and syncytia formation, in words: no inhibitory effect on HIV replication
